From ChEMBL document CHEMBL1144671, “Non-ATP competitive glycogen synthase kinase 3beta (GSK-3beta) inhibitors: study of structural requirements for thiadiazolidinone derivatives” (Bioorg Med Chem, 2008)

Experiment: Inhibition of rabbit recombinant GSK3-beta
Parameters: species or system Oryctolagus cuniculus

**Q.** With `CCOC(=O)CNc1nc(=O)n(C)s1` as the compound, how does the IC50 read?
**A.** 20 µM

**Q.** For `Nc1nc(=O)[nH]s1`, which IC50 is on record?
**A.** 25 µM

**Q.** Which IC50 does the source give for `Cn1sc(Nc2ccc(Br)cc2)nc1=O` here?
**A.** 15 µM

**Q.** For `Cn1s/c(=N\C(=O)c2ccccc2)n(CC#N)c1=O`, which IC50 is on record?
**A.** > 100 µM

**Q.** For `CCOC(=O)c1nc(-c2ccc(OC)cc2)ns1`, which IC50 is on record?
**A.** > 100 µM

**Q.** For `c1ccc(-c2nsc(-c3ccccc3)n2)cc1`, which IC50 is on record?
**A.** > 100 µM

**Q.** Which IC50 does the source give for `Cn1s/c(=N\C(=O)c2ccccc2)n(CC(=O)O)c1=O` here?
**A.** > 100 µM

**Q.** Which IC50 does the source give for `Cn1s/c(=N\C(=O)c2ccccc2)n(Cc2ccccc2)c1=O` here?
**A.** > 100 µM

**Q.** For `O=C(O)Cn1c(=O)n(Cc2ccccc2)s/c1=N\C(=O)c1ccccc1`, which IC50 is on record?
**A.** > 100 µM

**Q.** For `Cn1sc(NCCO)nc1=O`, which IC50 is on record?
**A.** > 100 µM

**Q.** For `c1cc(Nc2nsc(Nc3ccncc3)n2)ccn1`, which IC50 is on record?
**A.** > 100 µM

**Q.** Which IC50 does the source give for `Cc1ccc(-c2nsc(=O)[nH]2)cc1` here?
**A.** > 100 µM

**Q.** For `Cn1sc(Nc2ccccc2)nc1=O`, which IC50 is on record?
**A.** 12.5 µM

**Q.** For `N#CCn1c(=O)[nH]s/c1=N\C(=O)c1ccccc1`, which IC50 is on record?
**A.** > 100 µM

**Q.** Which IC50 does the source give for `CCOC(=O)c1nc(-c2cc(C(C)(C)C)c(O)c(C(C)(C)C)c2)ns1` here?
**A.** > 100 µM

**Q.** With `Cn1sc(NCC(=O)O)nc1=O` as the compound, how does the IC50 read?
**A.** 75 µM

**Q.** For `c1ccc(Nc2nsc(Nc3ccccc3)n2)cc1`, which IC50 is on record?
**A.** > 100 µM

**Q.** For `CCOC(=O)Cn1c(=O)n(C)s/c1=N\Cc1ccccc1`, which IC50 is on record?
**A.** > 100 µM

**Q.** Which IC50 does the source give for `Cn1sc(NCc2ccccc2)nc1=O` here?
**A.** 20 µM

**Q.** With `Cc1ccc(-c2nsc(S(=O)(=O)c3ccc(C)cc3)n2)cc1` as the compound, how does the IC50 read?
**A.** > 100 µM

**Q.** With `O=C(Nc1nc(=O)[nH]s1)c1ccccc1` as the compound, how does the IC50 read?
**A.** > 100 µM

**Q.** Which IC50 does the source give for `Cn1s/c(=N\C(=O)c2ccccc2)n(C)c1=O` here?
**A.** > 100 µM

**Q.** Which IC50 does the source give for `CCOC(=O)Cn1c(=O)n(Cc2ccccc2)s/c1=N\C(=O)c1ccccc1` here?
**A.** > 100 µM

**Q.** For `Cn1s/c(=N\c2ccc(Br)cc2)n(C)c1=O`, which IC50 is on record?
**A.** > 100 µM

**Q.** With `CCOC(=O)Nc1nc(=O)n(C)s1` as the compound, how does the IC50 read?
**A.** > 100 µM

**Q.** For `CCOC(=O)c1nc(-c2ccc(Cl)cc2)ns1`, which IC50 is on record?
**A.** > 100 µM

**Q.** For `CCOC(=O)Cn1c(=O)n(C)s/c1=N\C(=O)c1ccccc1`, which IC50 is on record?
**A.** > 100 µM

**Q.** With `Cn1sc(N)nc1=O` as the compound, how does the IC50 read?
**A.** 40 µM

**Q.** With `CC(=O)Nc1nsc(NC(C)=O)n1` as the compound, how does the IC50 read?
**A.** > 100 µM

**Q.** With `N#CCn1s/c(=N\C(=O)c2ccccc2)n(CC#N)c1=O` as the compound, how does the IC50 read?
**A.** > 100 µM

**Q.** For `CCOC(=O)Cn1c(-c2ccc(C)cc2)nsc1=O`, which IC50 is on record?
**A.** > 100 µM

**Q.** With `O=C(/N=c1\s[nH]c(=O)n1Cc1ccccc1)c1ccccc1` as the compound, how does the IC50 read?
**A.** > 100 µM

**Q.** With `CCOC(=O)c1nsc(-c2ccccc2)n1` as the compound, how does the IC50 read?
**A.** > 100 µM

**Q.** With `O=c1nc(NCc2ccccc2)sn1Cc1ccccc1` as the compound, how does the IC50 read?
**A.** > 100 µM

**Q.** Which IC50 does the source give for `CCOC(=O)c1nc(-c2ccccc2)ns1` here?
**A.** > 100 µM

**Q.** With `CCOC(=O)c1nc(-c2ccc([N+](=O)[O-])cc2)ns1` as the compound, how does the IC50 read?
**A.** > 100 µM

**Q.** Which IC50 does the source give for `CNc1nc(=O)n(C)s1` here?
**A.** 18 µM

**Q.** Which IC50 does the source give for `O=C(/N=c1\sn(Cc2ccccc2)c(=O)n1Cc1ccccc1)c1ccccc1` here?
**A.** > 100 µM

**Q.** For `O=C(Nc1nc(=O)n(Cc2ccccc2)s1)c1ccccc1`, which IC50 is on record?
**A.** > 100 µM

**Q.** Which IC50 does the source give for `Cn1sc(NC(=O)c2ccccc2)nc1=O` here?
**A.** > 100 µM

**Q.** Which IC50 does the source give for `ClCc1nc(-c2ccccc2)ns1` here?
**A.** > 100 µM

**Q.** Which IC50 does the source give for `Cn1sc(NCCc2ccccc2)nc1=O` here?
**A.** 15 µM

**Q.** Which IC50 does the source give for `O=c1nc(NCc2ccccc2)s[nH]1` here?
**A.** 6.5 µM

**Q.** With `Cc1ccccc1-c1nsc(=O)[nH]1` as the compound, how does the IC50 read?
**A.** > 100 µM

**Q.** With `CCNc1nsc(NCC)n1` as the compound, how does the IC50 read?
**A.** > 100 µM

**Q.** For `Cn1s/c(=N\Cc2ccccc2)n(Cc2ccccc2)c1=O`, which IC50 is on record?
**A.** > 100 µM
